Tests used:
tracheal smooth muscle = assay: Dilating action to contraction of tracheal smooth muscle (potassium chloride-induced contraction of isolated trachea segment, Magnus tube); assay type: cell-based; conditions: Cavia porcellus; 30 μM test substance; contraction induced by 72.7 mM potassium chloride; guinea pig (Hartley, male) trachea segment; read-out: Activity (suppressing rate for contraction by potassium chloride)
Procedure: Each sample is tested by using two segment obtained from one animal; the trachea was removed from a guinea pig (Hartley, male, seven weeks age) and was made the segment, 6 mm in length. The segment was suspended in a Magnus tube containing a physiological salt solution of 37° C. with a flow of mixed gas consisting of 95% oxygen and 5% carbon dioxide gas. A base-line tension of 1 g was applied to the segment and, after tension of the sample became stable, the solution was exchanged with a solution containing 72.7 mM of potassium chloride to induce a contraction. When tension of the contraction by potassium chloride became stable, a compound of the formula (1) was added as a test substance to measure the change in the tension. The test substance was dissolved in dimethyl sulfoxide and added thereto. Incidentally, at the stage of addition, the final concentration of dimethyl sulfoxide was made not more than 0.3%. Changes in the tension was recorded on a recorder (R-64V, Rika Denki) after introducing to an amplifier for strain pressure (AP-621G, Nippon Koden Kogyo) via an FD pickup transducer (TB-611T, Nippon Koden Kogyo). Tension before addition of potassium chloride was set as 0 while that after addition of potassium chloride was set as 100 and the suppressing rate for contraction by potassium chloride after addition of the test substance was expressed by a relative percentage whereby the activity was determined according to the following criteria.
The Compound No. in the table is the same as that in the Production Examples.

rats = conditions: male, rat, in vivo
Procedure: Toxicity test was conducted only for the Compounds 11, 43 and 80 by means of a single oral administration to rats.
Animals used: three males

| SMILES | inhibition at 30 µM (tracheal smooth muscle) | minimum lethal dose (rats) |
| --- | --- | --- |
| O=C1Cc2ccccc2Oc2cc(O)cc(O)c21 [Compound 11, 7,9-dihydroxy-10,11-dihydrodibenz[b,f]oxepin-10-one] | ≥ 50% | not less than 2,000 mg/kg |
| O=C1Cc2ccccc2Sc2cc(O)c(O)cc21 [Compound 43, 7,8-dihydroxy-10,11-dihydrodibenzo[b,f]thiepin-10-one] |  | not less than 2,000 mg/kg |
| Oc1cc(O)c2c(c1)Oc1ccc(F)cc1CC2 [Compound 30, 8-fluoro-10,11-dihydrodibenz[b,f]oxepin-1,3-diol] | ≥ 50% |  |
| CC(=O)c1c(O)cc(O)c2c1Oc1ccccc1CC2 [Compound 47, 4-acetyl-10,11-dihydrodibenz[b,f]oxepin-1,3-diol] | ≥ 50% |  |
| O=C1Cc2ccccc2Sc2cc(O)cc(O)c21 [Compound 80, 7,9-dihydroxy-10,11-dihydrodibenzo[b,f]thiepin-10-one] | ≥ 50% | not less than 2,000 mg/kg |
| O=C1Cc2cc(C(F)(F)F)ccc2Oc2cc(O)cc(O)c21 [Compound 38, 7,9-dihydroxy-2-trifluoromethyl-10,11-dihydrodibenz[b,f]oxepin-10-one] | ≥ 50% |  |
| CCC(=O)c1c(O)c2c(c(C(=O)CC)c1O)Sc1ccccc1CC2 [Compound 89, 2,4-dipropionyl-10,11-dihydrodibenzo[b,f]thiepin-1,3-diol] | ≥ 50% |  |

— US6495592B1, “Tracheal smooth muscle relaxants” (Nippon Suisan Kaisha, Ltd., priority 1996, dated 2002)
